Test system: HT-29 cells
Assay: Cellular uptake of FITC-BSA by CLSM in HT-29 cells
Type: cell-based
Details: 37° C., 3 h, P/T ratio 1/3 by weight
Protocol: Cellular Uptake of Protein-Loaded Telodendrimer Nanoparticles. Green fluorescent FITC-BSA molecules were used to probe the intracellular trafficking of proteins without and with telodendrimer nanoparticles. HT-29 colon cancer cells were incubated with free FITC-BSA and FITC-BSA-loaded telodendrimer nanoparticles, and were imaged by confocal laser scanning microscopy (CLSM). […] Only a small amount of the FITC-BSA molecules loaded in the nanoparticles of the telodendrimers containing four guanidine groups at a P/T ratio of 1/3 by weight could be delivered to the cellular interiors (green fluorescence in FIG. 6b). […] The poor intracellular protein delivery efficiency of the telodendrimers containing four guanidine groups may restrict their applications for intracellular delivery, however, this endows them with the potential to serve as nanocarriers for systemic delivery of proteins such as insulin. […]
Cellular Uptake. The cellular uptake and intracellular trafficking of the protein-incorporated nanoparticles were determined by fluorescence microscopy. […] The slides were mounted with cover slips and cells were imaged with a […] FV1000 laser scanning confocal fluorescence microscope.

FITC-BSA: Fluorescein isothiocyanate (FITC) labeled bovine serum albumin, fluorescent model protein
cellular uptake of FITC-BSA: could hardly enter the cells spontaneously
